Measurements taken from article PMC10940605, “Design, synthesis and in vitro anticancer activity of some new lomefloxacin derivatives” (Scientific Reports, 2024).

Experiments:
Test in all cases: NCI-60 SRB screen
Format in all cases: cell-based
SN12C = settings: Homo sapiens, 10^–5 Molar, read-out: Percent growth inhibition
Summary of the method: (§1)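 DMSO stocks diluted in medium with gentamycin; 10^−5 M final; 48 h, 37 °C, 5% CO2, 100% humidity; TCA fix 60 min 4 °C; SRB 10 min RT; OD […]; % growth inhibition vs Tz and C.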

HCT-15 = settings: Homo sapiens; HCT-15, 10^–5 Molar; read-out: Percent growth inhibition
Summary of the method: (§2)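 Single-dose screen at 10^−5 M; cells grown in RPMI 1640 with 2 mM L-glutamine and FBS for 24 h, then exposed to compound for 48 h at 37 °C, 5% CO2. TCA-fixed, SRB-stained, absorbance read at […]; percentage growth inhibition calculated against time-zero and control wells.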

melanoma SK-MEL-5 = settings: Homo sapiens; SK-MEL-5, 10^–5 Molar; read-out: Percent growth inhibition
Summary of the method: as §1

leukemia SR = settings: Homo sapiens; for inhibition at 10 µM: SR, 10^–5 Molar, read-out: Percent growth inhibition
Summary of the method: as §2

IGROV1 = settings: Homo sapiens, IGROV-1; IGROV1, 10^–5 Molar; read-out: Percent growth inhibition
Summary of the method: as §2

OVCAR-4 = settings: Homo sapiens; OVCAR-4, 10^–5 Molar; read-out: Percent growth inhibition
Summary of the method: as §2

SNB-19 = settings: Homo sapiens; SNB-19, 10^–5 Molar; read-out: Percent growth inhibition
Summary of the method: as §1

NCI-H226 = settings: Homo sapiens; NCI-H226, 10^–5 Molar; read-out: Percent growth inhibition
Summary of the method: as §1

MDA-MB-435 = settings: Homo sapiens; MDA-MB-435, 10^–5 Molar; read-out: Percent growth inhibition
Summary of the method: as §1

OVCAR-5 = settings: Homo sapiens; OVCAR-5, 10^–5 Molar; read-out: Percent growth inhibition
Summary of the method: as §1

K-562 = settings: Homo sapiens, K562; K-562, 10^–5 Molar; read-out: Percent growth inhibition
Summary of the method: as §1

ACHN = settings: Homo sapiens, 10^–5 Molar, read-out: Percent growth inhibition
Summary of the method: as §1

A549/ATCC = settings: Homo sapiens, 10^–5 Molar, read-out: Percent growth inhibition
Summary of the method: as §2

PC-3 = settings: Homo sapiens; PC-3, 10^–5 Molar; read-out: Percent growth inhibition
Summary of the method: as §1

HOP-92 = settings: Homo sapiens; HOP-92, 10^–5 Molar; read-out: Percent growth inhibition
Summary of the method: as §2

OVCAR-8 = settings: Homo sapiens; OVCAR-8, 10^–5 Molar; read-out: Percent growth inhibition
Summary of the method: as §2

NCI-H23 = settings: Homo sapiens; NCI-H23, 10^–5 Molar; read-out: Percent growth inhibition
Summary of the method: as §2

HCT-116 = settings: Homo sapiens; HCT-116, 10^–5 Molar; read-out: Percent growth inhibition
Summary of the method: as §2

U251 = settings: Homo sapiens, U-251; U251, 10^–5 Molar; read-out: Percent growth inhibition
Summary of the method: as §2

HCC-2998 = settings: Homo sapiens; HCC-2998, 10^–5 Molar; read-out: Percent growth inhibition
Summary of the method: as §2

BT-549 = settings: Homo sapiens; BT-549, 10^–5 Molar; read-out: Percent growth inhibition
Summary of the method: as §2

MALME-3M = settings: Homo sapiens, 10^–5 Molar, read-out: Percent growth inhibition
Summary of the method: as §1

SK-MEL-28 = settings: Homo sapiens; SK-MEL-28, 10^–5 Molar; read-out: Percent growth inhibition
Summary of the method: as §2

EKVX = settings: Homo sapiens, 10^–5 Molar, read-out: Percent growth inhibition
Summary of the method: as §2

Compound | inhibition at 10 µM (SN12C) [%] | inhibition at 10 µM (HCT-15) [%] | inhibition at 10 µM (melanoma SK-MEL-5) [%] | inhibition at 10 µM (leukemia SR) [%] | inhibition at 10 µM (IGROV1) [%] | inhibition at 10 µM (OVCAR-4) [%] | inhibition at 10 µM (SNB-19) [%] | inhibition at 10 µM (NCI-H226) [%] | inhibition at 10 µM (MDA-MB-435) [%] | inhibition at 10 µM (OVCAR-5) [%] | inhibition at 10 µM (K-562) [%] | inhibition at 10 µM (ACHN) [%] | inhibition at 10 µM (A549/ATCC) [%] | inhibition at 10 µM (PC-3) [%] | inhibition at 10 µM (HOP-92) [%] | inhibition at 10 µM (OVCAR-8) [%] | inhibition at 10 µM (NCI-H23) [%] | inhibition at 10 µM (HCT-116) [%] | inhibition at 10 µM (MALME-3M) [%] | inhibition at 10 µM (SK-MEL-28) [%] | further results
CCn1cc(C(=O)O)c(=O)c2cc(F)c(N3CCN(C(=O)c4ccc(Br)cc4)C(C)C3)c(F)c21 (centres unmarked) [Compound 7b, 7-(4-(4-Bromobenzoyl)-3-methylpiperazin-1-yl)-1-ethyl-6,8-difluoro-4-oxo-1,4-dihydroquinoline-3-carboxylic acid] | 1.45 | 1.3 | 1.22 | 1.41 | 5.97 | 16.9 | 4.45 | 1.95 | 3.15 | 2.96 | 0.24 | 2.27 | 1.07 | 5.63 | – | – | – | – | – | – | –
CCn1cc(C(=O)NN=Cc2cccs2)c(=O)c2cc(F)c(N3CCNC(C)C3)c(F)c21 (centres unmarked) [Compound 3e, 1-Ethyl-6,8-difluoro-7-(3-methylpiperazin-1-yl)-4-oxo-N'-(thiophen-2-ylmethylene)-1,4-dihydroquinoline-3-carbohydrazide] | 30 | 75 | 30.2 | 104 | 33 | 23.8 | 27.1 | 24 | 7.77 | 32.8 | 139 | 12.8 | 56 | 23.7 | 46.2 | 56.2 | 10.2 | 5.52 | 137 | 10.1 | IC50 (leukemia SR; Leukemia SR cells, concentration used for cell cycle and apoptosis tests): 1900 nM; inhibition at 10 µM (U251): 46.7%; inhibition at 10 µM (HCC-2998): 71.4%; inhibition at 10 µM (BT-549): 38.4%; inhibition at 10 µM (EKVX): 65.9%
CCn1cc(C(=O)O)c(=O)c2cc(F)c(N3CCN(CC(=O)Nc4ccccc4)C(C)C3)c(F)c21 (centres unmarked) [Compound 5a, 1-Ethyl-6,8-difluoro-7-(3-methyl-4-(2-oxo-2-(phenylamino)ethyl)piperazin-1-yl)-4-oxo-1,4-dihydroquinoline-3-carboxylic acid] | – | – | 0.76 | – | – | 17.6 | 0.85 | – | 2.9 | 1.71 | 12.9 | 2.19 | 2.07 | 6.83 | 2.95 | 1.7 | 8.68 | 0.13 | 2.09 | 3 | inhibition at 10 µM (HCC-2998): 0.15%
CCn1cc(C(=O)O)c(=O)c2cc(F)c(N3CCN(C(=O)c4ccccc4)C(C)C3)c(F)c21 (centres unmarked) [Compound 7a, 7-(4-Benzoyl-3-methylpiperazin-1-yl)-1-ethyl-6,8-difluoro-4-oxo-1,4-dihydroquinoline-3-carboxylic acid] | – | – | 6.55 | – | 3.14 | 20.5 | – | 2.44 | 4.07 | 5.65 | 7.84 | 5.78 | – | 13 | 31.8 | 4.61 | 4.39 | – | 4.96 | 4.44 | inhibition at 10 µM (U251): 2.73%; inhibition at 10 µM (HCC-2998): 5.26%; inhibition at 10 µM (BT-549): 3.33%; inhibition at 10 µM (EKVX): 1.21%
CCn1cc(C(=O)O)c(=O)c2cc(F)c(N3CCN(C(=O)c4ccc([N+](=O)[O-])cc4)C(C)C3)c(F)c21 (centres unmarked) [Compound 7d, 1-Ethyl-6,8-difluoro-7-(3-methyl-4-(4-nitrobenzoyl)piperazin-1-yl)-4-oxo-1,4-dihydroquinoline-3-carboxylic acid] | 0.88 | – | 0.86 | 44.8 | – | 8.82 | 3.31 | 3.95 | – | 9.27 | 2.06 | 2.14 | – | 12 | 0.34 | – | – | 2.1 | 0.88 | – | –
CCn1cc(C(=O)NN=Cc2cccnc2)c(=O)c2cc(F)c(N3CCNC(C)C3)c(F)c21 (centres unmarked) [Compound 3d, 1-Ethyl-6,8-difluoro-7-(3-methylpiperazin-1-yl)-4-oxo-N'-(pyridin-3-ylmethylene)-1,4-dihydroquinoline-3-carbohydrazide] | 69.4 | 1.76 | 34.8 | 66.4 | 71.7 | 51.9 | 69.5 | 58.2 | 49 | 31.3 | 71.9 | 13.6 | 14.4 | 49.1 | 74.2 | 70 | 50.9 | 66.5 | 40 | 23.1 | inhibition at 10 µM (U251): 74.6%; inhibition at 10 µM (HCC-2998): 50.4%; inhibition at 10 µM (BT-549): 23.1%; inhibition at 10 µM (EKVX): 37.2%
CCn1cc(C(=O)O)c(=O)c2cc(F)c(N3CCN(CC(=O)Nc4ccc(Cl)cc4)C(C)C3)c(F)c21 (centres unmarked) [Compound 5b, 7-(4-(2-((4-Chlorophenyl)amino)-2-oxoethyl)-3-methylpiperazin-1-yl)-1-ethyl-6,8-difluoro-4-oxo-1,4-dihydroquinoline-3-carboxylic acid] | 2.23 | 1.39 | 16.1 | – | 0.82 | 22.2 | 1.6 | 3.83 | 5.85 | – | 14.2 | 14 | 6.12 | 12.1 | 9.45 | 7.15 | 7.93 | 0.67 | 4.32 | 6.48 | inhibition at 10 µM (BT-549): 0.23%; inhibition at 10 µM (EKVX): 3.04%
CCn1cc(C(=O)O)c(=O)c2cc(F)c(N3CCN(C(=O)c4ccc(Cl)cc4)C(C)C3)c(F)c21 (centres unmarked) [Compound 7c, 7-(4-(4-Chlorobenzoyl)-3-methylpiperazin-1-yl)-1-ethyl-6,8-difluoro-4-oxo-1,4-dihydroquinoline-3-carboxylic acid] | 3.15 | – | 2.21 | 8.55 | 1.62 | 18.9 | 6.42 | 7.33 | 6.54 | 2.81 | 1.62 | 4.45 | 1.75 | 9.65 | – | – | – | 0.17 | 1.6 | 2.92 | –
